Assays:
[1] = system: Staphylococcus epidermidis; test: Cleavage of the natural malodour precursor by axilla isolate Ax6; type: cell-based; conditions: 500 ppm precursor, 24 h, 36° C., capillary GC
Method: (§1) The axillary flora of 8 panellists was isolated with the detergent-scrub method: A 6 cm^2 area of the axilla was scrubbed with a phosphate buffer at pH 7 containing 1% Tween 80. The samples were spread-plated on tryptic soy agar amended with 5 g/L of Tween 80 and 1 g/L of lecithin. Single isolates obtained after 48 h incubation were subcultured and characterised. A total of 24 individual strains were identified based on colony and cell morphology, gram-reaction, lipophilic growth, lipase reaction and API identification kits (bioMerieux, France; coryneforms with the API coryne kit and cocci with the ID Staph 32 kit). The strains were grown overnight in a liquid medium (Mueller-Hinton amended with 0.01% Tween 80), harvested by centrifugation and resuspended to a final OD600 of 1 in a semi-synthetic medium (Per litre: 3 g KH2PO4, 1.9 g K2HPO4, 0.2 g yeast extract, 0.2 g MgSO4, 1.4 g NaCl, 1 g NH4Cl, 10 mg MnCl2, 1 mg Fe3Cl2, 1 mg CaCl2). Aliquots of this stationary culture were then amended with a final concentration of 500 ppm of Nα-3-hydroxy-3-methyl-hexanoyl-L-glutamine (5% stock solution dissolved in methanol). After 24 h incubation (with shaking at 300 rpm; 36° C.) the samples were extracted and the amount of released 3-hydroxy-3-methyl-hexanoic acid was determined by capillary GC. […]

[2] = biological target: T1, enzyme extracted from Corynebacterium striatum A×20 (AMRE, Nα-acyl-glutamine-aminoacylase) (Corynebacterium striatum, UniProt Q8GGD4); test: Substrate specificity of the enzyme (capillary GC of released acid or alcohol); type: biochemical; conditions: 500 ppm in Buffer A, 24 h incubation
T1 construct: an enzyme may be isolated from cellular extracts obtained from wild-type bacterial strains; endogenous in cells; host or cells: Corynebacterium striatum Ax20 (DSM 14267), mechanically disrupted; crude extract or chromatographically purified enzyme
Method: To understand in detail the structural requirements of substrates, the enzyme extracted from Corynebacterium striatum A×20 was incubated with a wide variety of said compounds related to the originally isolated Nα-3-methyl-3-hydroxy-hexanoyl-L-glutamine present in sweat. Each compound was used at a concentration of 500 ppm in Buffer A, and analysis of released acid or alcohol was done by capillary GC after 24 h of incubation. First, different modifications at the N-terminus were tested.

[3] = system: Corynebacterium jeikeium; test: Cleavage of the natural malodour precursor by axilla isolate Ax19; type: cell-based; conditions: 500 ppm precursor, 24 h, 36° C., capillary GC
Method: as §1

[4] = system: Micrococcus luteus; test: Cleavage of the natural malodour precursor by axilla isolate Ax9; type: cell-based; conditions: 500 ppm precursor, 24 h, 36° C., capillary GC
Method: as §1

[5] = system: Corynebacterium striatum; test: Cleavage of the natural malodour precursor by axilla isolate Ax20; type: cell-based; conditions: 500 ppm precursor, 24 h, 36° C., capillary GC
Method: as §1

[6] = system: Corynebacterium jeikeium; test: Cleavage of the natural malodour precursor by axilla isolate Ax15; type: cell-based; conditions: 500 ppm precursor, 24 h, 36° C., capillary GC
Method: as §1

[7] = system: Corynebacterium bovis; test: Cleavage of the natural malodour precursor by axilla isolate Ax3; type: cell-based; conditions: 500 ppm precursor, 24 h, 36° C., capillary GC
Method: as §1

[8] = system: Staphylococcus capitis; test: Cleavage of the natural malodour precursor by axilla isolate Ax1; type: cell-based; conditions: 500 ppm precursor, 24 h, 36° C., capillary GC
Method: as §1

[9] = system: Corynebacterium group G; test: Cleavage of the natural malodour precursor by axilla isolate Ax7; type: cell-based; conditions: 500 ppm precursor, 24 h, 36° C., capillary GC
Method: as §1

T1 sequence (Q8GGD4 2-400): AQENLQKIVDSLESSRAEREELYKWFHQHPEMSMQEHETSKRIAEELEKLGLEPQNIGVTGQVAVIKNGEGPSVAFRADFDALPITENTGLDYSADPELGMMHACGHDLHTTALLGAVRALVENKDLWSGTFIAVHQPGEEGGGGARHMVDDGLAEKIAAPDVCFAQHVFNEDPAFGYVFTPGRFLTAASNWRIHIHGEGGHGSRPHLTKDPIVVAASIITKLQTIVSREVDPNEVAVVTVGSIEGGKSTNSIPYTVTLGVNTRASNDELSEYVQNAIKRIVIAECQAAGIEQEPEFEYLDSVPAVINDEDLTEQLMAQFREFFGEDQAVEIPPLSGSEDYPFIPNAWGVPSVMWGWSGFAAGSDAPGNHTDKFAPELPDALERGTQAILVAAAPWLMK

Which 3-hydroxy-3-methyl-hexanoic acid released [1] does the source give for `CCCC(C)(O)CC(=O)N[C@@H](CCC(N)=O)C(=O)O` (stereo partly drawn) [compound 1, Nα-(3-hydroxy-3-methyl-hexanoyl)-L-glutamine] here?
Its 3-hydroxy-3-methyl-hexanoic acid released is 0 ppm.

And the Cleavage by enzyme [2]?
Its Cleavage by enzyme is “++ (++ cleavage 10–50%)”.

What about the 3-hydroxy-3-methyl-hexanoic acid released [3] of the same compound?
The 3-hydroxy-3-methyl-hexanoic acid released was 105.1 ppm.

And the 3-hydroxy-3-methyl-hexanoic acid released [4]?
The 3-hydroxy-3-methyl-hexanoic acid released was 0 ppm.

What about the 3-hydroxy-3-methyl-hexanoic acid released [5] of the same compound?
Its 3-hydroxy-3-methyl-hexanoic acid released is 262.7 ppm.

What about the 3-hydroxy-3-methyl-hexanoic acid released [6] of the same compound?
The 3-hydroxy-3-methyl-hexanoic acid released was 37.4 ppm.

What about the 3-hydroxy-3-methyl-hexanoic acid released [7] of the same compound?
The 3-hydroxy-3-methyl-hexanoic acid released was 0 ppm.

What about the 3-hydroxy-3-methyl-hexanoic acid released [8] of the same compound?
Its 3-hydroxy-3-methyl-hexanoic acid released is 0 ppm.

And the 3-hydroxy-3-methyl-hexanoic acid released [9]?
Its 3-hydroxy-3-methyl-hexanoic acid released is 0 ppm.
